Laboratory results: patent publication US20250144267A1, “USE OF POLYSACCHARIDE DERIVATIVE” (priority 2022, published 2025)
“Also recorded” adds a separate entry of the source.

Columns and labels:
[1] = Release test of Van from AL-ABA-Van solution (dialysis membrane, PBS); assay type: physicochemical; conditions: PBS pH 5.0, 6.0, 7.4, 37°C
Experimental: The release behavior or Van from an AL-ABA-Van solution at different pH values was investigated using a dialysis membrane (pore size: 50 kDa). Specifically, 1 mL of an AL-ABA-Van solution of the AL-ABA-Van obtained in Example I-7 above dissolved in 3 mg/mL of pure water was injected into a dialysis membrane cut to 9 cm, and both ends of the dialysis membrane were tied with kite thread. This was placed in an 80 mL security container, 79 mL of PBS solution was added, and the mixture was stirred at the maximum rotational speed with a 1 cm stirrer tip in a 37° C. thermostatic tank. 1.0 mL samples were taken from the solution in the security container at specific time points (1, 2, 3, 4, 6, 8, 12, 24, and 48 hours). The sample solutions were subjected to UV-vis spectrum measurement, the drug concentration in the solutions was assayed based on absorbance, and the release rate of the drug Van (vancomycin release %) was calculated. The above measurements were conducted with pH 5.0, pH 6.0 and pH 7.4 PBS solutions (n=4 at each pH). […]

[2] = test system: AB22 cells (mouse mesothelioma cells); test: Cell toxicity evaluation (WST assay) of HA-ABA-PMX in AB22; assay type: cell-based; conditions: PMX 10^−4 to 10 μg/mL, 48 hours
Experimental: (§1) As with the HA-ABA, the cell toxicity of HA-ABA-PMX in MeT-5A (human mesothelial cell line) and AB22 cells (mouse mesothelioma cells) was evaluated by WST assay.
(§2) Specifically, MeT-5A (human mesothelial cell line) and AB22 cells (mouse mesothelioma cells) were seeded on 24-well plates and incubated for 24 hours. The medium was then replaced with medium having HA-ABA-PMX dissolved at different PMX concentrations (10^−4 μg/mL, 10^−3 μg/mL, 10^−2 μg/mL, 10^−1 μg/mL, 1 μg/mL, 10 μg/mL). Cell viability (%) 48 hours after sample addition was then measured by WST-8 assay (Cell Counting Kit-8, Dojindo).
(§3) For purposes of comparison as a control test, cell toxicity was also evaluated using free PMX and HA-ADH-PMX in place of HA-ABA-PMX.

[3] = Release test of PMX from HA-ABA-PMX (dialysis tube, PBS); assay type: physicochemical
Experimental: The release behavior or PMX from HA-ABA-PMX at different pH values was investigated using a dialysis tube (MWCO: 1 kDa). 1 mL of an aqueous solution of the HA-ABA-PMX (1 mg/mL) obtained in Example II-2 above was placed in a dialysis tube, and shaken at 50 rpm while being incubated with 79 mL of PBS (37° C., pH=5.0, 6.0 7.4). The external solution (sustained release solution) was collected at specific time points, and new PBS was substituted for the entire amount. The drug concentration in the collected external solution (sustained release solution) was measured by UV-vis, and the release rate of the drug PMX was calculated.
For purposes of comparison as control tests, the same release test was also performed with the HA-ABA-PMX solution replaced by an aqueous solution of PMX (0.12 mg/mL) (Free PMX), a mixed solution of HA and PMX obtained by dissolving hyaluronic acid (HA) (1 mg/mL) and PMX (0.12 mg/mL) in water (Free PMX mixed with HA), and an aqueous solution of HA-ADH-PMX having the HA bound irreversibly to the PMX by amide bonds.

[4] = test system: MeT-5A (human mesothelial cell line); test: Cell toxicity evaluation (WST assay) of HA-ABA-PMX in MeT-5A; assay type: cell-based; conditions: PMX 10^−4 to 10 μg/mL, 48 hours
Experimental: as §1, §2, §3

[5] = test system: AB22 cells (mouse mesothelioma cells); test: Cell toxicity evaluation (WST assay) of HA-ABA-DOX in AB22; assay type: cell-based; conditions: DOX 10^−3 to 100 μg/mL, 48 hours
Experimental: As with the HA-ABA, the cell toxicity of HA-ABA-DOX in AB22 cells (mouse mesothelioma cells) was evaluated by WST assay.
Specifically, AB22 cells (mouse mesothelioma cells) were seeded on 24-well plates and incubated for 24 hours. The medium was then replaced with media having HA-ABA-PMX dissolved at different DOX concentrations (10^−3 μg/mL, 10^−2 μg/mL, 10^−1 μg/mL, 1 μg/mL, 10 μg/mL, 100 μg/mL). Cell viability (%) 48 hours after sample addition was then measured by WST-8 assay (Cell Counting Kit-8, Dojindo).
For purposes of comparison as a control test, cell toxicity was also evaluated using free DOX in place of HA-ABA-DOX.

CN[C@H](CC(C)C)C(=O)N[C@H]1C(=O)N[C@@H](CC(N)=O)C(=O)N[C@H]2C(=O)N[C@H]3C(=O)N[C@H](C(=O)N[C@H](C(=O)O)c4cc(O)cc(O)c4-c4cc3ccc4O)[C@H](O)c3ccc(c(Cl)c3)Oc3cc2cc(c3O[C@@H]2O[C@H](CO)[C@@H](O)[C@H](O)[C@H]2O[C@H]2C[C@](C)(N)[C@H](O)[C@H](C)O2)Oc2ccc(cc2Cl)[C@H]1O [Van, Vancomycin]
Van release behavior [1]: almost all of the Van was released in the first 10 hours

benzaldehyde-modified hyaluronic acid-pemetrexed conjugate [HA-ABA-PMX]
Cell growth inhibition effect (cell viability) [2]: dose-dependent cell growth inhibition effects; also recorded: reduced cell viability at lower concentrations than the free PMX and the HA-ADH-PMX | PMX released (cumulative drug release) ([3]; PBS pH 5.0, 37°C, after 24 hours): more than 80% | PMX not released ([3]; PBS pH 7.4, 37°C, after 24 hours): 40% | Cell growth inhibition effect (cell viability) [4]: dose-dependent cell growth inhibition effects; also recorded: reduced cell viability at lower concentrations than the free PMX and the HA-ADH-PMX

COc1cccc2c1C(=O)c1c(O)c3c(c(O)c1C2=O)C[C@@](O)(C(=O)CO)C[C@@H]3O[C@H]1C[C@H](N)[C@H](O)[C@H](C)O1 [free DOX, Doxorubicin]
Cell growth inhibition effect (cell viability) [5]: dose-dependent cell growth inhibition effects on AB22

Nc1nc2[nH]cc(CCc3ccc(C(=O)N[C@@H](CCC(=O)O)C(=O)O)cc3)c2c(=O)[nH]1 [Free PMX, Pemetrexed, reference compound]
Cell growth inhibition effect (cell viability) [2]: dose-dependent cell growth inhibition effects | PMX release behavior ([3]; PBS, 37°C): almost all of the PMX was rapidly released within 2 hours | Cell growth inhibition effect (cell viability) [4]: dose-dependent cell growth inhibition effects
